Measured values taken from the NIST ThermoML archive (doi:10.1021/acs.jced.7b00335).

Test: xn = mol fraction of the nth substance listed
Details: 100 kPa, Liquid; for viscosity: Concentric cylinders viscometry; for mass density: Vibrating tube method

O=Cc1ccccc1 [benzaldehyde] + CC(C)O
Details	mass density [kg/m3]	viscosity [mPa·s]
293.15 K, x1 = 0.0809	809.6	2.11
293.15 K, x1 = 0.1596	830.7	1.86
293.15 K, x1 = 0.24	852.5	1.675
293.15 K, x1 = 0.3492	882.3	1.499
293.15 K, x1 = 0.4399	906.4	1.42
293.15 K, x1 = 0.5693	940.8	1.402
293.15 K, x1 = 0.6495	962.2	1.414
293.15 K, x1 = 0.7399	986.2	1.434
293.15 K, x1 = 0.8498	1012.8	1.47
293.15 K, x1 = 0.9399	1033.3	1.502
293.15 K, x1 = 1	1046.3	1.52
298.15 K, x1 = 0.0809	804.3	1.82
298.15 K, x1 = 0.1596	826.4	1.63
298.15 K, x1 = 0.24	848.2	1.47
298.15 K, x1 = 0.3492	877.9	1.342
298.15 K, x1 = 0.4399	901.9	1.296
298.15 K, x1 = 0.5693	936.2	1.284
298.15 K, x1 = 0.6495	957.6	1.298
298.15 K, x1 = 0.7399	981.7	1.318
298.15 K, x1 = 0.8498	1008	1.354
298.15 K, x1 = 0.9399	1029	1.385
298.15 K, x1 = 1	1041.7	1.41
303.15 K, x1 = 0.0809	799.9	1.59
303.15 K, x1 = 0.1596	821.8	1.43
303.15 K, x1 = 0.24	843.7	1.33
303.15 K, x1 = 0.3492	873.4	1.233
303.15 K, x1 = 0.4399	897.4	1.197
303.15 K, x1 = 0.5693	931.7	1.187
303.15 K, x1 = 0.6495	953.1	1.196
303.15 K, x1 = 0.7399	976.7	1.216
303.15 K, x1 = 0.8498	1004.1	1.252
303.15 K, x1 = 0.9399	1024.1	1.286
303.15 K, x1 = 1	1037.1	1.31
308.15 K, x1 = 0.0809	795.6	1.41
308.15 K, x1 = 0.1596	817.6	1.29
308.15 K, x1 = 0.24	839.2	1.2
308.15 K, x1 = 0.3492	868.8	1.126
308.15 K, x1 = 0.4399	892.9	1.1
308.15 K, x1 = 0.5693	927.2	1.098
308.15 K, x1 = 0.6495	948.6	1.109
308.15 K, x1 = 0.7399	972.6	1.131
308.15 K, x1 = 0.8498	999.3	1.163
308.15 K, x1 = 0.9399	1019.7	1.197
308.15 K, x1 = 1	1032.4	1.22
313.15 K, x1 = 0.0809	791	1.23
313.15 K, x1 = 0.1596	813	1.14
313.15 K, x1 = 0.24	834.8	1.08
313.15 K, x1 = 0.3492	864.4	1.03
313.15 K, x1 = 0.4399	888.3	1.011
313.15 K, x1 = 0.5693	922.6	1.018
313.15 K, x1 = 0.6495	944	1.032
313.15 K, x1 = 0.7399	967	1.051
313.15 K, x1 = 0.8498	994.1	1.093
313.15 K, x1 = 0.9399	1014.6	1.124
313.15 K, x1 = 1	1027.9	1.15
318.15 K, x1 = 0.0809	786.7	1.08
318.15 K, x1 = 0.1596	808.6	1
318.15 K, x1 = 0.24	830.3	0.95
318.15 K, x1 = 0.3492	859.8	0.918
318.15 K, x1 = 0.4399	883.7	0.909
318.15 K, x1 = 0.5693	918	0.916
318.15 K, x1 = 0.6495	939.4	0.933
318.15 K, x1 = 0.7399	963.2	0.967
318.15 K, x1 = 0.8498	989.7	1.015
318.15 K, x1 = 0.9399	1010.8	1.058
318.15 K, x1 = 1	1023.4	1.09
323.15 K, x1 = 0.0809	782	0.97
323.15 K, x1 = 0.1596	803.7	0.913
323.15 K, x1 = 0.24	825.6	0.873
323.15 K, x1 = 0.3492	855.1	0.848
323.15 K, x1 = 0.4399	879.1	0.84
323.15 K, x1 = 0.5693	913.4	0.844
323.15 K, x1 = 0.6495	934.9	0.863
323.15 K, x1 = 0.7399	958.9	0.892
323.15 K, x1 = 0.8498	985	0.943
323.15 K, x1 = 0.9399	1006	0.991
323.15 K, x1 = 1	1019.1	1.03
